# What was measured:
# SSPN mRNA = experiment: SSPN gene expression in wild-type C2C12 myotubes; type: cell-based, mouse
# Description: C2C12 cells (American Type Culture Collection) were grown at 37° C. with 5% CO2 in growth medium containing DMEM (Gibco) with 20% FBS (Sigma-Aldrich). Upon reaching 90-100% confluency, myoblasts were induced to differentiate by replacing the medium with differentiation medium consisting of DMEM with 2% horse serum (Sigma-Aldrich). Conditionally immortalized H2K WT and mdx myoblasts with a nonsense mutation in exon 23 of dystrophin were a gift from Terrance Partridge, Ph.D. (Children's National Medical Center, Washington, D.C.). See, Morgan et al., Dev Biol. 1994; 162(2):486-98 Myoblasts were allowed to proliferate on 0.01% gelatin (Sigma-Aldrich) coated plates at 33° C. with 5% CO2 with growth medium containing DMEM, 20% HI-FBS (Invitrogen), 2% L-glutamine (Sigma-Aldrich), 2% chicken embryo extract (Accurate Chemical), 1% penicillin-streptomycin (Sigma-Aldrich), and 20 U/ml of fresh interferon gamma (Gibco). […]
# RNA from myotubes treated for 48 hrs was extracted from cells using Trizol-based (Thermo Fisher Scientific) phase separation, Chomczynski et al., Biotechniques. […] RNA concentrations were determined using a NanoDrop 1000 (Thermo Fisher Scientific) and 750 ng of RNA in a 20 Id reaction was reverse transcribed using iScript cDNA synthesis (Bio-Rad) with the following cycling conditions: 25° C. for 5 mins, 42° C. for 30 mins, 85° C. for 5 mins. For mouse qPCR, SsoFast EvaGreen Supermix (Bio-Rad), 400 nM of each optimized forward and reverse primer (SSPN F: 5′ […] 3′, SSPN R: 5′ […] 3′, BACT F: 5′ […] 3′, BACT R: 5′ […] 3′), and cDNA corresponding to 37.5 ng RNA were used to amplify cDNA measured by QuantStudio 5 Real-Time PCR System (Thermo Fisher Scientific) with the following reaction conditions: 55° C. for 2 mins, 95° C. for 2 mins, 40 cycles of 95° C. for 10 seconds and 62° C. for 30 seconds, and dissociation stage. […] Data was analyzed using the ddCT method and normalized to reference gene ACTB with vehicle-treated samples serving as the calibrator (relative expression of vehicle control=1). […]
# [1] = Half-life analysis in CD-1 mouse plasma; type: in vitro ADME, CD-1 mice; settings: 37° C.
# Description: Half-life analysis was performed by Eurofins Panlabs Inc. using 1 μM of compound with a final DMSO concentration of 0.5%. PBS or plasma from CD-1 mice was pre-warmed to 37° C. for 5 mins before addition of the test compounds and continued incubation at 37° C. At 0, 30, 60, 120, 240, and 1440 mins an aliquot of solution containing compounds was mixed with acetonitrile/methanol, mixed, and centrifuged. The supernatants were used for HPLC-MS/MS analysis.
# SSPN gene expression = SSPN gene expression in tibialis anterior after intramuscular injection in mdx mice; type: in vivo; settings: 4 hours
# Description: For the preliminary safety assessment of OT-9, we performed IP injections in 6 month old C57/B16 males. The mice were injected with 100 μl of vehicle (5% DMSO (Sigma), 95% PBS), 100 μl of 30 mg/kg of OT-9 in vehicle, or 100 μl of 50 mg/kg of OT-9 in vehicle (n=1 mouse per treatment). […] For assessment of activity, 20-weeks old male mdx littermates were injected in both tibialis anterior muscles with vehicle (5% DMSO, 95% PBS) or 86 μg of OT-9. Two mice were injected in both TAs with vehicle and three mice were injected in both TAs with 200 of OT-9 (9.4 mM solution containing 86 μg of OT-9). After 4 hours, the muscles were harvested and processed for gene expression analysis. For assessment of activity of OT-9m after local administration, 19-22-weeks old mdx males were injected in both tibialis anterior muscles with vehicle (5% DMSO, 95% PBS) or 3 mg/kg and 10 mg/kg of OT-9m. After 4 hours, the muscles were harvested and processed for gene expression analysis. For assessment of activity of OT-9m after systemic administration, 13-weeks old mdx males were injected subcutaneously with vehicle (4% PEG-200 in hydroxypropyl-b-cyclodextrin) or 20 mg/kg/day of OT-9m. After 13 days of treatment, the muscles were harvested and processed for gene expression analysis.
# After the preliminary safety evaluation, we tested the ability of OT-9 to increase SSPN gene expression in vivo. […] Five 20-weeks old male mdx littermates were subjected to intramuscular injections in both tibialis anterior (TA) muscles. Two mice were injected in both TAs with vehicle and […] were injected with 3 mg/kg of OT-9 (molar equivalent of 9.4 mM used in the safety assessment). After 4 hours of treatment, the TAs were harvested and processed for gene expression analysis. […] After determination that OT-9 is capable of increasing SSPN gene expression in vivo, we evaluated one of its derivatives, OT-9m, for its ability to increase SSPN expression in mdx mice. OT-9m was chosen based on its improved activity in vitro compared to OT-9 (compare, Table 1, entries 1 & 14). To assess activity OT-9m in vivo after local administration, eleven 19-22 weeks old male mdx mice were subjected to intramuscular injections in both tibialis anterior (TA) muscles. Four mice were injected in both TAs with vehicle, three mice were injected with 3 mg/kg of OT-9m and four mice were injected with 10 mg/kg of OT-9m. After 4 hours of treatment, the TAs were harvested and processed for gene expression analysis.
structure (smiles),measurement,setting,value
CCN(CC)c1ccc2cc(C(=O)Nc3ccc(C(=O)N4CCCCCC4)cc3)c(=O)oc2c1 [OT-9],SSPN mRNA levels after compound removal,"SSPN mRNA; 5 μM for 4 hours, 4, 24 and 48 hours after compound removal",returned to baseline levels
same,SSPN mRNA levels over the vehicle control,"SSPN mRNA; 5 μM for 4 hours, immediately after compound removal (0h)",1.5 fold
same,SSPN mRNA levels,"SSPN mRNA; 5 μM, 48 hours",increased SSPN mRNA levels
same,half-life at 1 μM,[1],462 min
same,increase in SSPN gene expression relative to the vehicle control-treated group,"SSPN gene expression; 3 mg/kg intramuscular, tibialis anterior",1.7 fold
same,adverse effects after local injection,"SSPN gene expression; OT-9 3 mg/kg intramuscular, both TA",No adverse effects
